From US20140357487A1, “PLANTS HAVING INCREASED TOLERANCE TO HERBICIDES” (BASF SE, priority 2011, published 2014)

Columns and labels:
Conditions in all cases: normalized on Arabidopsis wild-type HPPD
[1] = target: T1, Arabidopsis HPPD (SEQ ID: 53) (Arabidopsis thaliana, UniProt P93836); assay: HPPD activity assay, Arabidopsis wild-type HPPD; format: biochemical; design: key to Normalized tolerance index TI: tolerance index relative to Arabidopsis wild-type HPPD (= 1)
T1 construct: His6 (N); made in house; host or cells: E. coli BL21 (DE3)
T1 sequence (P93836 1-445): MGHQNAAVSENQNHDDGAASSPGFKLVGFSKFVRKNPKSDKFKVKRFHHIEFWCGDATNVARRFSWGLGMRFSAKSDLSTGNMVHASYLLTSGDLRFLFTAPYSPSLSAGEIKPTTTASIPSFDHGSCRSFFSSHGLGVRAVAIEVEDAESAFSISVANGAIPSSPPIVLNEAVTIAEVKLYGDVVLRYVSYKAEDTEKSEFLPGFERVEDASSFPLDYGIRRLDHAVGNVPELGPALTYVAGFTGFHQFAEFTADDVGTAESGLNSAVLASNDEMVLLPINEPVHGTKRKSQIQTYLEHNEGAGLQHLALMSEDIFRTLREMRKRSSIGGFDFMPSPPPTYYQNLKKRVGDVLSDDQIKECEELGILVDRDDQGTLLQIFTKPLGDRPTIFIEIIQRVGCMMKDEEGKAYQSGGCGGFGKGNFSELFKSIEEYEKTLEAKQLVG
Experimental: (§1) HPPD produces homogentisic acid and CO2 from 4-hydroxyphenylpyruvate (4-HPP) and O2. The activity assay for HPPD is based on the analysis of homogentisic acid by reversed phase HPLC.
(§2) The assay mixture can contain 150 mM potassium phosphate buffer pH 7.0, 50 mM L-ascorbic acid, 1 μM FeSO4 and 7 μg of purified enzyme in a total volume of 1 ml.
(§3) Inhibitors are dissolved in DMSO (dimethylsulfoxide) to a concentration of 20 mM or 0.5 mM, respectively. From this stock solution serial five-fold dilutions are prepared in DMSO, which are used in the assay. The respective inhibitor solution accounts for 1% of the assay volume. […] After a preincubation of 30 min the reaction is started by adding 4-HPP to a final concentration of 0.1 mM. The reaction is allowed to proceed for 120 min at room temperature. The reaction is stopped by addition of 100 μl of 4.5 M phosphoric acid.
(§4) Activities are normalized by setting the uninhibited enzyme activity to 100%. IC50 values are calculated using non-linear regression.
(§5) The assay mixture can contain 150 mM potassium phosphate buffer pH 7.0, 50 mM L-ascorbic acid, 100 μM Catalase (Sigma-Aldrich), 1 μM FeSO4 and 0.2 units of purified HPPD enzyme in a total volume of 505 μl. 1 unit is defined as the amount of enzyme that is required to produce 1 nmol of HGA per minute at 20° C.
Inhibitors are dissolved in DMSO (dimethylsulfoxide) to a concentration of 0.5 mM. From this stock solution serial five-fold dilutions are prepared in DMSO, which are used in the assay. The respective inhibitor solution accounts for 1% of the assay volume. […] Activities are normalized by setting the uninhibited enzyme activity to 100%. IC50 values are calculated using non-linear regression.
(§6) Using methods which are described in the above examples or well known in the art, purified, recombinant wildtype HPPD enzymes are characterized with respect to their kinetic properties and sensitivity towards HPPD inhibiting herbicides. Apparent michaelis constants (Km) and maximal reaction velocities (Vmax) are calculated by non-linear regression with the software GraphPad Prism 5 (GraphPad Software, La Jolla, USA) using a substrate inhibition model.
(§7) Field performance of the HPPD enzyme, which is used as a herbicide tolerance trait, may depend not only on its lack of sensitivity towards HPPD inhibiting herbicides but also on its activity. To assess the potential performance of a herbicide tolerance trait a tolerance index (TI) is calculated using the following formula: […]
Easy comparison and ranking of each trait is enabled by normalizing tolerance indexes on Arabidopsis wild-type HPPD.

[2] = test system: Alopecurus HPPD; assay: HPPD activity assay, Alopecurus HPPD; format: biochemical
Experimental: as §1, §2
(§8) Inhibitors are dissolved in DMSO (dimethylsulfoxide) to a concentration of 20 mM or 0.5 mM, respectively. From this stock solution serial five-fold dilutions are prepared in DMSO, which are used in the assay. The respective inhibitor solution accounts for 1% of the assay volume. Thus, final inhibitor concentrations range from 200 μM to 2.5 nM or from 5 μM to 63 pM, respectively. After a preincubation of 30 min the reaction is started by adding 4-HPP to a final concentration of 0.1 mM. The reaction is allowed to proceed for 120 min at room temperature. The reaction is stopped by addition of 100 μl of 4.5 M phosphoric acid.
as §4
(§9) The assay mixture can contain 150 mM potassium phosphate buffer pH 7.0, 50 mM L-ascorbic acid, 100 μM Catalase (Sigma-Aldrich), 1 μM FeSO4 and 0.2 units of purified HPPD enzyme in a total volume of 505 μl. […]
(§10) Inhibitors are dissolved in DMSO (dimethylsulfoxide) to a concentration of 0.5 mM. […] IC50 values are calculated using non-linear regression.
as §6, with “model. […] Weighted means (by standard error) of Km and […] values are calculated from at least three independent experiments. […]” for “model.”

[3] = test system: Avena HPPD; assay: HPPD activity assay, Avena HPPD; format: biochemical, Avena sativa
Experimental: as §1, §2, §8, §4, §5
(§11) Inhibitors are dissolved in DMSO (dimethylsulfoxide) to a concentration of 0.5 mM. From this stock solution serial five-fold dilutions are prepared in DMSO, which are used in the assay. The respective inhibitor solution accounts for 1% of the assay volume. Thus, final inhibitor concentrations range from 5 μM to 320 pM, respectively. Activities are normalized by setting the uninhibited enzyme activity to 100%. IC50 values are calculated using non-linear regression.
as §6, with “model. […] Weighted means (by standard error) of Km and […] values are calculated from at least three independent experiments. […]” for “model.”
as §7

[4] = test system: Chlamydomonas HPPD1; assay: HPPD activity assay, Chlamydomonas HPPD1; format: biochemical, Chlamydomonas reinhardtii
Experimental: as §1, §2, §8, §4, §9, §10
as §6, with “model. […] Weighted means (by standard error) of Km and […] values are calculated from at least three independent experiments. […]” for “model.”

[5] = test system: Lolium HPPD; assay: HPPD activity assay, Lolium HPPD; format: biochemical
Experimental: as §1, §2, §8, §4, §5, §11
as §6, with “model. […] Weighted means (by standard error) of Km and […] values are calculated from at least three independent experiments. […]” for “model.”
as §7

[6] = test system: Poa HPPD; assay: HPPD activity assay, Poa HPPD; format: biochemical
Experimental: as §1, §2, §8, §4, §9, §10
as §6, with “model. […] Weighted means (by standard error) of Km and […] values are calculated from at least three independent experiments. […]” for “model.”

[7] = test system: Sorghum HPPD; assay: HPPD activity assay, Sorghum HPPD; format: biochemical
Experimental: as §1, §2, §8, §4, §9, §10
as §6, with “model. […] Weighted means (by standard error) of Km and […] values are calculated from at least three independent experiments. […]” for “model.”

[8] = target: T2, Arabidopsis HPPD variant M335H, P336A (Arabidopsis thaliana, UniProt P93836, M335H/P336A); assay: HPPD activity assay, Arabidopsis HPPD mutant M335H, P336A; format: biochemical
T2 construct: PCR-based site directed mutagenesis of pEXP5-NT/TOPO®-AtHPPD is done; His6 (N); made in house; host or cells: E. coli BL21 (DE3)
Experimental: as §1, §2, §3, §4, §5
Inhibitors are dissolved in DMSO (dimethylsulfoxide) to a concentration of 0.5 mM. […] IC50 values are calculated using non-linear regression. […]
Purified, mutant HPPD enzymes are obtained by the methods described above. […] Apparent michaelis constants (Km) and maximal reaction velocities (Vmax) are calculated by non-linear regression with the software GraphPad Prism 5 (GraphPad Software, La Jolla, USA) using a substrate inhibition model.
as §7, with “of the optimized HPPD enzyme,” for “of the HPPD enzyme,”, “herbicide tolerance trait may depend” for “herbicide tolerance trait, may depend”

T2 sequence (P93836 whole entry M335H/P336A): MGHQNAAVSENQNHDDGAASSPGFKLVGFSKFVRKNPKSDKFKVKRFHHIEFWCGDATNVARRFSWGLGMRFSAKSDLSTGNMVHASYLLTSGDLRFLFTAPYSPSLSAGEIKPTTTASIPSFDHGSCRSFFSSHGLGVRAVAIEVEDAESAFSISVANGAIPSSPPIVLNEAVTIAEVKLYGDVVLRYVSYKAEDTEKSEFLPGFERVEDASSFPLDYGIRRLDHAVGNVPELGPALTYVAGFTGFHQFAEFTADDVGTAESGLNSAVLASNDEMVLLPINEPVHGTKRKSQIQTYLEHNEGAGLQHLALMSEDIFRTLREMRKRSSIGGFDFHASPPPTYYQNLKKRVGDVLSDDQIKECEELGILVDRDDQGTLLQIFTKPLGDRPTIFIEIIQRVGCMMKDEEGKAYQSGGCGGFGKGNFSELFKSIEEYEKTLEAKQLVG

Structure (SMILES): CC1CC(c2c(Cl)ccc(C3=C(O)c4ncccc4CS3(=O)=O)c2Cl)=NO1 (stereo not drawn) [Inhibitor 4, 7-[2,4-dichloro-3-(5-methyl-4,5-dihydroisoxazol-3-yl)phenyl]-6,6-dioxo-5H-thiopyrano[4,3-b]pyridin-8-ol]
- Normalized tolerance index TI ([1]; Arabidopsis HPPD Wildtype, Table 15): 1
- Normalized tolerance index TI ([1]; Arabidopsis HPPD, Table 12): 1
- Normalized tolerance index TI [2]: 3.5
- Normalized tolerance index TI [3]: 5.3
- Normalized tolerance index TI [4]: 1.3
- Normalized tolerance index TI [5]: 4.5
- Normalized tolerance index TI [6]: 1.2
- Normalized tolerance index TI [7]: 3.7
- Normalized tolerance index TI [8]: 7.4
